Laboratory results from PMC7265341, “Quantifying CDK inhibitor selectivity in live cells” (Nature Communications, 2020).
pIC50: −log10 of the molar value. Where two headings read alike, the source gives them in different places.

Tests used:
CDK15/Cyclin Y = CDK15/Cyclin Y (Homo sapiens, UniProt Q96Q40); assay: NanoBRET live-cell target engagement, NanoLuc-CDK15/Cyclin Y in HEK-293; type: binding; conditions: 10µM
CDK4/Cyclin D1 = CDK4/Cyclin D1 (Homo sapiens, UniProt P11802); assay: NanoBRET live-cell target engagement, NanoLuc-CDK4/Cyclin D1 in HEK-293; type: binding; conditions: 10µM
CDK4/Cyclin D1, sequence (P11802 whole entry): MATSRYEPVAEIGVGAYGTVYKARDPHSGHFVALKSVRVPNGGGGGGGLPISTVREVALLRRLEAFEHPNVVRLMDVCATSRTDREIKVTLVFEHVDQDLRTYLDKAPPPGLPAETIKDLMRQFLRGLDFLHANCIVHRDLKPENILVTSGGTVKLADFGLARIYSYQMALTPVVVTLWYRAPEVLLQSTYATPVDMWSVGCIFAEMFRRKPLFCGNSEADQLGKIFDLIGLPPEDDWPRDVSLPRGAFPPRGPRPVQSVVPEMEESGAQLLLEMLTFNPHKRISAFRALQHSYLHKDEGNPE
CDK4/Cyclin D1, sequence (P24385 whole entry partner): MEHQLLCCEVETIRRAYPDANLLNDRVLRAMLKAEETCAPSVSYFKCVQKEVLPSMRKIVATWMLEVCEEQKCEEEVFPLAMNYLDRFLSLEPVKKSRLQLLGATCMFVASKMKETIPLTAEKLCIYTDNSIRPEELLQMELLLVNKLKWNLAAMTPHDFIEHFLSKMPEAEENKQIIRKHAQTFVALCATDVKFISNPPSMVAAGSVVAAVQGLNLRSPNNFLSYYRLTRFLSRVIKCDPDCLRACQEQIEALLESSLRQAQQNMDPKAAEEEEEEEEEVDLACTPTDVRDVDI

CDK8/Cyclin C = CDK8/Cyclin C (Homo sapiens, UniProt P49336); assay: NanoBRET live-cell target engagement, NanoLuc-CDK8/Cyclin C in HEK-293; type: binding; conditions: 10µM
CDK19/Cyclin C = CDK19/Cyclin C (Homo sapiens, UniProt Q9BWU1); assay: NanoBRET live-cell target engagement, NanoLuc-CDK19/Cyclin C in HEK-293; conditions: 10µM
CDK9/Cyclin K = CDK9/Cyclin K (Homo sapiens, UniProt P50750); assay: NanoBRET live-cell target engagement, NanoLuc-CDK9/Cyclin K in HEK-293; type: binding; conditions: 10µM
CDK17/Cyclin Y = CDK17/Cyclin Y (Homo sapiens, UniProt Q00537); assay: NanoBRET live-cell target engagement, CDK17-NanoLuc/Cyclin Y in HEK-293; type: binding; conditions: 10µM
CDK11A/Cyclin L2 = molecular target: T1, CDK11A/Cyclin L2 (Homo sapiens, UniProt Q9UQ88); assay: NanoBRET live-cell target engagement, CDK11A-NanoLuc/Cyclin L2 in HEK-293; type: binding; conditions: 10µM
T1 sequence (Q9UQ88 1-783): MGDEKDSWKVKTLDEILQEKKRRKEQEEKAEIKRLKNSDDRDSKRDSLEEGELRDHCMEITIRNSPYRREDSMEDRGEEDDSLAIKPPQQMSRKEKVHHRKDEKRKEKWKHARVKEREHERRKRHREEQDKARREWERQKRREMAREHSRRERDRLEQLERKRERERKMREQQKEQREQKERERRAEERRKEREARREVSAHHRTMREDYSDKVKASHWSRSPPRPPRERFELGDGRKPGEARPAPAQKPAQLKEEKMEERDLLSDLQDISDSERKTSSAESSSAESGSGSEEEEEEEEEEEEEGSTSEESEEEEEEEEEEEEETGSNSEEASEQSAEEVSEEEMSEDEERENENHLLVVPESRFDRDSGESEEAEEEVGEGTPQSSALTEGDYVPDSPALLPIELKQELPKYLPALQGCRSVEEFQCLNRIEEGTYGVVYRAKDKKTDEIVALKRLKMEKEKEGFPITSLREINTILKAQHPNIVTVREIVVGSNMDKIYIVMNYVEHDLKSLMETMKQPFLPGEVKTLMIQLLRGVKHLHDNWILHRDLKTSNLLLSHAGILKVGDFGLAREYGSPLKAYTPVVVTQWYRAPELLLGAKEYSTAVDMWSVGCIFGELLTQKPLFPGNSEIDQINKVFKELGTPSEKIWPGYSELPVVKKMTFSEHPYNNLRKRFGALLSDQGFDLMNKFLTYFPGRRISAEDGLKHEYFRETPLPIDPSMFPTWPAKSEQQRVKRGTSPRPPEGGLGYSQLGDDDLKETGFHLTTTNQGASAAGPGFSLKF

CDK12/Cyclin K = CDK12/Cyclin K (Homo sapiens, UniProt Q9NYV4); assay: NanoBRET live-cell target engagement, CDK12-NanoLuc/Cyclin K in HEK-293; type: binding; conditions: 10µM
CDK12/Cyclin K, sequence (Q9NYV4 1-1481 isoform Q9NYV4-2): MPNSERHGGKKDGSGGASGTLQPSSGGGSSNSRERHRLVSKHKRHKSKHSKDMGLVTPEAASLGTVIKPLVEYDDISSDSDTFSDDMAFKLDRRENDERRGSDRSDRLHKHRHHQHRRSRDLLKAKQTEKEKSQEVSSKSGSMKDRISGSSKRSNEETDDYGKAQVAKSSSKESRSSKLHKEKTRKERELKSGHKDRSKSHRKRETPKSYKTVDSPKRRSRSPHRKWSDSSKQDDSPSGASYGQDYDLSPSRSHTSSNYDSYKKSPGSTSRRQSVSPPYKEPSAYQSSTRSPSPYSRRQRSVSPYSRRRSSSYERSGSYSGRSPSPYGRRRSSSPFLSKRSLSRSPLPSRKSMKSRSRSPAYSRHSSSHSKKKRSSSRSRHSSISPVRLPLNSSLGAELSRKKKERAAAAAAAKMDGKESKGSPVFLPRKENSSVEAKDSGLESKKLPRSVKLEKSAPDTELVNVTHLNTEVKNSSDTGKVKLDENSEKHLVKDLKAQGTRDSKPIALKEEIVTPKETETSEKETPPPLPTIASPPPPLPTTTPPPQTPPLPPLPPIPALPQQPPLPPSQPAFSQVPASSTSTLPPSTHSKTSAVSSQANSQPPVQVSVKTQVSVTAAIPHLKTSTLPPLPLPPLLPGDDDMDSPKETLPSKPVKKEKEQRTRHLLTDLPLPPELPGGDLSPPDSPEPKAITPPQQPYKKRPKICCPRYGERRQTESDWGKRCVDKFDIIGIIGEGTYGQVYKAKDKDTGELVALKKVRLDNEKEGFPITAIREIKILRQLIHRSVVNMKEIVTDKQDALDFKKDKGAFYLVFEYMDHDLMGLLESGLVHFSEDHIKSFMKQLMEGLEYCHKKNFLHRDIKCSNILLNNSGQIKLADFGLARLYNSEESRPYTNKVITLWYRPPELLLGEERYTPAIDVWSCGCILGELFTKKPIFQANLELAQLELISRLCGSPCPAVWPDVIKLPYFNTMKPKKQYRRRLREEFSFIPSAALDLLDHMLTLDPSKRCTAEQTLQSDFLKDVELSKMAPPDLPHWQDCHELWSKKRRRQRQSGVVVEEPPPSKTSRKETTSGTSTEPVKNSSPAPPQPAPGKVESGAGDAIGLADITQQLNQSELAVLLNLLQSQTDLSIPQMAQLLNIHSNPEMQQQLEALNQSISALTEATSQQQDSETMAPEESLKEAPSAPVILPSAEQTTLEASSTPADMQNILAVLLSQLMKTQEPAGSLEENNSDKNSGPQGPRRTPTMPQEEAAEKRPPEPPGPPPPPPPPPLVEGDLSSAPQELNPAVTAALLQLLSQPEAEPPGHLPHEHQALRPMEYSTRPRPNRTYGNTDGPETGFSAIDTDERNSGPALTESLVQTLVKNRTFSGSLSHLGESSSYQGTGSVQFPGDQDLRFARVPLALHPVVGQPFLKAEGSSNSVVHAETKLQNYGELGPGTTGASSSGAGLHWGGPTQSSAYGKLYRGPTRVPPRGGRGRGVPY
CDK12/Cyclin K, sequence (O75909 whole entry partner): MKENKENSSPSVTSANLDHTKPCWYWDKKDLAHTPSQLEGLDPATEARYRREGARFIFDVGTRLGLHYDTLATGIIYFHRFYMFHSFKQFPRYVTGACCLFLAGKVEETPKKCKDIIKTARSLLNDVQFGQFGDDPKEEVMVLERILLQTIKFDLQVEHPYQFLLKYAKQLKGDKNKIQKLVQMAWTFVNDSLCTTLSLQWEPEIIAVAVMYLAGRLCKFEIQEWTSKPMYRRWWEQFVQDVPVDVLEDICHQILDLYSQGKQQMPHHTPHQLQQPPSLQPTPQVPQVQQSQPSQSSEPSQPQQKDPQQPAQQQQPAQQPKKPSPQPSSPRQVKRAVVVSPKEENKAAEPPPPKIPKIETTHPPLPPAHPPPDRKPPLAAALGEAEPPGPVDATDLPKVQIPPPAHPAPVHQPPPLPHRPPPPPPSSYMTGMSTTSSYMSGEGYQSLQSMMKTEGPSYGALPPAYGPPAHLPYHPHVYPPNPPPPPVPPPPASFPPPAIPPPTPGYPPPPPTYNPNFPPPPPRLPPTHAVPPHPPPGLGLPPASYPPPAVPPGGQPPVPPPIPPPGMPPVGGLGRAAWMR

CDK7 = CDK7 (Homo sapiens, UniProt P50613); assay: NanoBRET live-cell target engagement, NanoLuc-CDK7 in HEK-293; type: binding; conditions: 10µM
CDK1/Cyclin E1 = CDK1/Cyclin E1 (Homo sapiens, UniProt P06493); assay: NanoBRET live-cell target engagement, CDK1-NanoLuc/Cyclin E1 in HEK-293; type: binding; conditions: 10µM
CDK1/Cyclin E1, sequence (P06493 whole entry): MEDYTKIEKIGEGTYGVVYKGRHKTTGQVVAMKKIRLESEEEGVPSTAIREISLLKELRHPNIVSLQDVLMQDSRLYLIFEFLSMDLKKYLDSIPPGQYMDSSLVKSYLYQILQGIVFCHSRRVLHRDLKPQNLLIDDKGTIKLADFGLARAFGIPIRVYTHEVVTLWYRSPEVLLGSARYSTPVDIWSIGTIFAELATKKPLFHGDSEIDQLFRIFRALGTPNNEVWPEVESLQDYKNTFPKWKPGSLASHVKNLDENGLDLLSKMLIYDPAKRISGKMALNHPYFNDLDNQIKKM
CDK1/Cyclin E1, sequence (P24864 whole entry partner): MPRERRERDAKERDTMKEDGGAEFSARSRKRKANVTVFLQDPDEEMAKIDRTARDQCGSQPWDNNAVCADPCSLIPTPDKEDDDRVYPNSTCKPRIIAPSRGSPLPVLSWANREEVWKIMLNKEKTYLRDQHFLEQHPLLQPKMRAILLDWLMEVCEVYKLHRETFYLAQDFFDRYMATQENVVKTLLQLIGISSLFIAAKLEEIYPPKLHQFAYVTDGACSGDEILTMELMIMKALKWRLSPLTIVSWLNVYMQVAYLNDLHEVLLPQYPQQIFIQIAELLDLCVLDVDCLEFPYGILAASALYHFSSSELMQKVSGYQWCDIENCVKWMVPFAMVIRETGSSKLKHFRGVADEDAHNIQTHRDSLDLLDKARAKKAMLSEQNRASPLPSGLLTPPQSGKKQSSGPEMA

CDK13/Cyclin K = CDK13/Cyclin K (Homo sapiens, UniProt Q14004); assay: NanoBRET live-cell target engagement, CDK13-NanoLuc/Cyclin K in HEK-293; type: binding; conditions: 10µM
CDK10/Cyclin L2 = CDK10/Cyclin L2 (Homo sapiens, UniProt Q15131); assay: NanoBRET live-cell target engagement, CDK10-NanoLuc/Cyclin L2 in HEK-293; conditions: 10µM
CDK5/CDK5R1 = CDK5/CDK5R1 (Homo sapiens, UniProt Q00535); assay: NanoBRET live-cell target engagement, CDK5-NanoLuc/CDK5R1 in HEK-293; type: binding; conditions: 10µM
CDK16/Cyclin Y = CDK16/Cyclin Y (Homo sapiens, UniProt Q00536); assay: NanoBRET live-cell target engagement, CDK16-NanoLuc/Cyclin Y in HEK-293; type: binding; conditions: 10µM
CDK18/Cyclin Y = CDK18/Cyclin Y (Homo sapiens, UniProt Q07002); assay: NanoBRET live-cell target engagement, CDK18-NanoLuc/Cyclin Y in HEK-293; type: binding; conditions: 10µM
CDK14/Cyclin Y = CDK14/Cyclin Y (Homo sapiens, UniProt O94921); assay: NanoBRET live-cell target engagement, CDK14-NanoLuc/Cyclin Y in HEK-293; type: binding; conditions: 10µM
CDK14/Cyclin Y, sequence (O94921 whole entry): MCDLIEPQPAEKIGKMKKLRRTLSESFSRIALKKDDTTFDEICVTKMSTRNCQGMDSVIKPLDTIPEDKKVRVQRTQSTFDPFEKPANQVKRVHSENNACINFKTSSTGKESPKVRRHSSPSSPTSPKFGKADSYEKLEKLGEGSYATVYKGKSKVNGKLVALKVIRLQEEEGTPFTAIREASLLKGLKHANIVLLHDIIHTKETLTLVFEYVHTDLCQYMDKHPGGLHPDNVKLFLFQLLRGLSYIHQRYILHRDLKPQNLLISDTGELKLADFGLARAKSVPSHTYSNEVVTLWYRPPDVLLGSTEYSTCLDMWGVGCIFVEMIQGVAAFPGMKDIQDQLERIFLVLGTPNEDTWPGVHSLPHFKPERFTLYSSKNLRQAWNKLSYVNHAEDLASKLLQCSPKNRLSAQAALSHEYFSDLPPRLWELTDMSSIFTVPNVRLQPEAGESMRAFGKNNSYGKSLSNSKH
CDK14/Cyclin Y, sequence (Q8ND76 whole entry partner): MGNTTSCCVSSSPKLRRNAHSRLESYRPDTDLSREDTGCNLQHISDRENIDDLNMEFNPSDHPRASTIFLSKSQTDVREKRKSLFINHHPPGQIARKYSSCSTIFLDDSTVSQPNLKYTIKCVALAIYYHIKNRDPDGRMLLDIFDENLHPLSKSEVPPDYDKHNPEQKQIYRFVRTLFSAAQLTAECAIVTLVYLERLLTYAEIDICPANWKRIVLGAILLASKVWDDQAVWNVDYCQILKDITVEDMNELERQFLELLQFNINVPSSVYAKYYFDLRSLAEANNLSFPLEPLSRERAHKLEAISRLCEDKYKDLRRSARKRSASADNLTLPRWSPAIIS

CDK20/Cyclin H = CDK20/Cyclin H (Homo sapiens, UniProt Q8IZL9); assay: NanoBRET live-cell target engagement, NanoLuc-CDK20/Cyclin H in HEK-293; type: binding; conditions: 10µM
CDK6/Cyclin D1 = CDK6/Cyclin D1 (Homo sapiens, UniProt Q00534); assay: NanoBRET live-cell target engagement, NanoLuc-CDK6/Cyclin D1 in HEK-293; type: binding; conditions: 10µM
CDK6/Cyclin D1, sequence (Q00534 whole entry): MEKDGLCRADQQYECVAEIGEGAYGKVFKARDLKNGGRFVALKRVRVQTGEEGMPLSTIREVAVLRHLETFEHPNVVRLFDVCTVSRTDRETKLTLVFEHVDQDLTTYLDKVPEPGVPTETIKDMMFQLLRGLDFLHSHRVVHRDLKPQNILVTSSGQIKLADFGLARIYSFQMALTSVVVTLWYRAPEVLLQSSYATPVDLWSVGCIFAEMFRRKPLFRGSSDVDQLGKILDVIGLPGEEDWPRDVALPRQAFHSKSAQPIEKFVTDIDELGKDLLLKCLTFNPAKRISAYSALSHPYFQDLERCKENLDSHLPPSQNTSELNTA
CDK6/Cyclin D1, sequence (P24385 whole entry partner): as the sequence (P24385 whole entry partner) above

CDK11B/Cyclin L2 = CDK11B/Cyclin L2 (Homo sapiens, UniProt P21127); assay: NanoBRET live-cell target engagement, CDK11B-NanoLuc/Cyclin L2 in HEK-293; type: binding; conditions: 10µM
CDK3/Cyclin E1 = CDK3/Cyclin E1 (Homo sapiens, UniProt Q00526); assay: NanoBRET live-cell target engagement, CDK3-NanoLuc/Cyclin E1 in HEK-293; type: binding
CDK3/Cyclin E1, sequence (Q00526 whole entry): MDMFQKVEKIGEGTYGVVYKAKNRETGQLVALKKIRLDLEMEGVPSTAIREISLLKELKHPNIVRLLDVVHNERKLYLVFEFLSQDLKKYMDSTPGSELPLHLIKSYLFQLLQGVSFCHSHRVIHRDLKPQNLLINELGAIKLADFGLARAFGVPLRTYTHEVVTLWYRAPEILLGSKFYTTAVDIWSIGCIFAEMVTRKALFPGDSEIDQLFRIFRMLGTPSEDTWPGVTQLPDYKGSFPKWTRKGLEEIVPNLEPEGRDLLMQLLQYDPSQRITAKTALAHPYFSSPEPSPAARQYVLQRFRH
CDK3/Cyclin E1, sequence (P24864 whole entry partner): as the sequence (P24864 whole entry partner) above

O=C1NC(=NCc2cccs2)S/C1=C\c1ccc2ncccc2c1 [RO-3306]
CDK15/Y Inhibition at 10µM (%) (CDK15/Cyclin Y; average of experiments): 22.3%
CDK15/Y Inhibition at 10µM (%) (CDK15/Cyclin Y; independent experiment 1): 12.8%
CDK15/Y Inhibition at 10µM (%) (CDK15/Cyclin Y; independent experiment 2): 31.8%
CDK4/D1 Inhibition at 10µM (%) (CDK4/Cyclin D1; average of experiments): -19.5%
CDK4/D1 Inhibition at 10µM (%) (CDK4/Cyclin D1; independent experiment 1): 11.3%
CDK4/D1 Inhibition at 10µM (%) (CDK4/Cyclin D1; independent experiment 2): -50.4%
CDK8/C Inhibition at 10µM (%) (CDK8/Cyclin C; average of experiments): 17.8%
CDK8/C Inhibition at 10µM (%) (CDK8/Cyclin C; independent experiment 1): 15.7%
CDK8/C Inhibition at 10µM (%) (CDK8/Cyclin C; independent experiment 2): 20.0%
CDK19/C Inhibition at 10µM (%) (CDK19/Cyclin C; average of experiments): 19.5%
CDK19/C Inhibition at 10µM (%) (CDK19/Cyclin C; independent experiment 1): 15.2%
CDK19/C Inhibition at 10µM (%) (CDK19/Cyclin C; independent experiment 2): 23.8%
CDK9/K Inhibition at 10µM (%) (CDK9/Cyclin K; average of experiments): 29.2%
CDK9/K Inhibition at 10µM (%) (CDK9/Cyclin K; independent experiment 1): 10.0%
CDK9/K Inhibition at 10µM (%) (CDK9/Cyclin K; independent experiment 2): 48.5%
CDK17/Y Inhibition at 10µM (%) (CDK17/Cyclin Y; average of experiments): 40.0%
CDK17/Y Inhibition at 10µM (%) (CDK17/Cyclin Y; independent experiment 1): 13.8%
CDK17/Y Inhibition at 10µM (%) (CDK17/Cyclin Y; independent experiment 2): 66.1%
CDK11a/L2 Inhibition at 10µM (%) (CDK11A/Cyclin L2; average of experiments): 25.4%
CDK11a/L2 Inhibition at 10µM (%) (CDK11A/Cyclin L2; independent experiment 1): 51.4%
CDK11a/L2 Inhibition at 10µM (%) (CDK11A/Cyclin L2; independent experiment 2): -0.5%
CDK12/K Inhibition at 10µM (%) (CDK12/Cyclin K; average of experiments): 10.6%
CDK12/K Inhibition at 10µM (%) (CDK12/Cyclin K; independent experiment 1): 8.2%
CDK12/K Inhibition at 10µM (%) (CDK12/Cyclin K; independent experiment 2): 13.0%
CDK7 Inhibition at 10µM (%) (CDK7; average of experiments): 57.8%
CDK7 Inhibition at 10µM (%) (CDK7; independent experiment 1): 37.4%
CDK7 Inhibition at 10µM (%) (CDK7; independent experiment 2): 78.3%
CDK1/E1 Inhibition at 10µM (%) (CDK1/Cyclin E1; average of experiments): 81.7%
CDK1/E1 Inhibition at 10µM (%) (CDK1/Cyclin E1; independent experiment 1): 78.1%
CDK1/E1 Inhibition at 10µM (%) (CDK1/Cyclin E1; independent experiment 2): 85.3%
CDK13/K Inhibition at 10µM (%) (CDK13/Cyclin K; average of experiments): 7.2%
CDK13/K Inhibition at 10µM (%) (CDK13/Cyclin K; independent experiment 1): 3.3%
CDK13/K Inhibition at 10µM (%) (CDK13/Cyclin K; independent experiment 2): 11.1%
CDK10/L2 Inhibition at 10µM (%) (CDK10/Cyclin L2; average of experiments): 22.6%
CDK10/L2 Inhibition at 10µM (%) (CDK10/Cyclin L2; independent experiment 1): 6.5%
CDK10/L2 Inhibition at 10µM (%) (CDK10/Cyclin L2; independent experiment 2): 38.7%
CDK5/CDK5R1 Inhibition at 10µM (%) (CDK5/CDK5R1; average of experiments): -1.8%
CDK5/CDK5R1 Inhibition at 10µM (%) (CDK5/CDK5R1; independent experiment 1): 10.9%
CDK5/CDK5R1 Inhibition at 10µM (%) (CDK5/CDK5R1; independent experiment 2): -14.5%
CDK16/Y Inhibition at 10µM (%) (CDK16/Cyclin Y; independent experiment 1): 47.1%
CDK16/Y Inhibition at 10µM (%) (CDK16/Cyclin Y; independent experiment 2): 19.7%
CDK18/Y Inhibition at 10µM (%) (CDK18/Cyclin Y; average of experiments): 16.9%
CDK18/Y Inhibition at 10µM (%) (CDK18/Cyclin Y; independent experiment 1): 3.1%
CDK18/Y Inhibition at 10µM (%) (CDK18/Cyclin Y; independent experiment 2): 30.7%
CDK14/Y Inhibition at 10µM (%) (CDK14/Cyclin Y; average of experiments): 0.0648%
CDK14/Y Inhibition at 10µM (%) (CDK14/Cyclin Y; independent experiment 1): 3.4%
CDK14/Y Inhibition at 10µM (%) (CDK14/Cyclin Y; independent experiment 2): -3.3%
CDK20/H Inhibition at 10µM (%) (CDK20/Cyclin H; independent experiment 1): 63.6%
CDK20/H Inhibition at 10µM (%) (CDK20/Cyclin H; independent experiment 2): 19.4%
CDK6/D1 Inhibition at 10µM (%) (CDK6/Cyclin D1; average of experiments): 15.6%
CDK6/D1 Inhibition at 10µM (%) (CDK6/Cyclin D1; independent experiment 1): 22.8%
CDK6/D1 Inhibition at 10µM (%) (CDK6/Cyclin D1; independent experiment 2): 8.5%
CDK11b/L2 Inhibition at 10µM (%) (CDK11B/Cyclin L2; average of experiments): 10.3%
CDK11b/L2 Inhibition at 10µM (%) (CDK11B/Cyclin L2; independent experiment 1): 7.5%
CDK11b/L2 Inhibition at 10µM (%) (CDK11B/Cyclin L2; independent experiment 2): 13.1%
CDK3/E1 Inhibition at 10µM (%) (CDK3/Cyclin E1; average of experiments): 74.0%
CDK3/E1 Inhibition at 10µM (%) (CDK3/Cyclin E1; independent experiment 1): 51.6%
CDK3/E1 Inhibition at 10µM (%) (CDK3/Cyclin E1; independent experiment 2): 96.3%
pIC50 (CDK3/Cyclin E1; independent experiment 1, read-out: CDK3/E1 IC50): 6.85
pIC50 (CDK3/Cyclin E1; independent experiment 2, read-out: CDK3/E1 IC50): 6.55
pIC50 (CDK3/Cyclin E1; independent experiment 3, read-out: CDK3/E1 IC50): 6.74
pIC50 (CDK3/Cyclin E1; live HEK-293, 2 h, mean ± S.E.M. (n=3) or mean (n=2), read-out: IC50 for CDK/cyclin complexes, CDK3/E1): 6.70
